36 molecules from PubChem BioAssay (NCI) can be followed below.

Usually GI50 stands for the concentration giving 50% growth inhibition. One may read the TGI as the concentration at which net growth stops.

Structures are written as SMILES.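 48-hour exposure; five concentrations; linearly interpolated endpoints. GI50 = concentration required for 50% inhibition of growth. TGI: total growth inhibition.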 Some results are limits rather than exact numbers.

The test has as its system MDA-MB-468 breast. The experiment in a line: DTP human tumour cell line panel, 48 h.
In the case of `O=C(Nc1n[nH]c2cc(-c3cc(F)ccc3F)ccc12)C1CC1`, the GI50 was 6060 nM and the TGI was greater than 25000 nM.

With `Cc1ccccc1NC(=O)Nc1nc2ccc([N+](=O)[O-])cc2s1`, the GI50 is 2410 nM and the TGI amounted to 5370 nM.

`Cn1c(COC(=O)NCCc2ccccn2)nc2c(N3CCOCC3)nc(Cl)nc21`: the GI50 is 1560 nM and the TGI came to 3770 nM.

Regarding `O=C1C=CC(=O)c2c(O)c(N3CCN(CCO)CC3)c(Cl)c(O)c21`, the GI50 is 286 nM and the TGI stood at 1000 nM.

Regarding `COc1cc(C2CC(c3ccc(Nc4nc(NCCO)nc(NCCO)n4)cc3)=NN2c2cc(Cl)cc(Cl)c2)cc(OC)c1OC` (configuration not stated), the GI50 is 1680 nM and the TGI stood at 4480 nM.

Turning to `COc1cc(N2C(=O)[C@H](Cl)C2c2ccc(SC)cc2)cc(OC)c1OC` (some centres not stated), the concentration for 50% growth inhibition (GI50) is 274 nM and the TGI is greater than 100000 nM.

As for `COc1ccc2[nH]c(C(=O)N3CCN(C(=O)OCc4ccc5c(Cl)cc(Cl)c(O)c5n4)CC3)cc2c1`, the GI50 is 1260 nM and the TGI is 2780 nM.

Regarding `CCCCCCCC(=O)OCC/C=C/C1OC1C1OC(=O)/C=C\C=C\C(=O)N(C(C)=O)C(=O)/C=C(/C)CCC2OC2C1OC(=O)NC(C)=O` (configuration not stated), the GI50 is 1210 nM and the TGI turned out to be 5600 nM.

Consider `COC1=CC(c2ccc[nH]2)=N/C1=C\c1[nH]c(C)c(C(=O)CCCCCCCCC(=O)O[C@H]2CC[C@H]3C4CCc5cc(O)ccc5C4CC[C@]23C)c1C` (some centres not stated), for which the GI50 is 560 nM and the TGI was greater than 50000 nM.

In the case of `CCCCCCCC/C=C/CCCCCCCC1=NC(C)(C)CN1C(C)(C)CO`, the GI50 is 1730 nM and the TGI is 3230 nM.

As for `Cn1c(I)c(C#C[Si](C)(C)C)c(=O)n(C(=O)c2ccccc2)c1=O`, the GI50 was 1190 nM and the total growth inhibition concentration (TGI) is 2870 nM.

For the molecule `CCOC(=O)Nc1ccc2nc(-c3cscn3)[nH]c2c1`, the GI50 is 2440 nM and the TGI is greater than 100000 nM.

As for `CC1=NN(c2cccc(Cl)c2)C(=O)/C1=C\c1cn(CC(O)CN2CCCCC2)c2ccccc12` (configuration not stated), the GI50 is 10400 nM and the TGI came to 25500 nM.

For `O=C1c2cc3c(cc2-c2c1c1cc(F)c(F)cc1c(=O)n2CCCn1ccnc1)OCO3`, the GI50 was 20.5 nM and the TGI came out at 90.7 nM.

Consider `O=C1NC(=NCCc2ccc(Cl)cc2)S/C1=C\c1ccc2ncccc2c1`, for which the GI50 is 7500 nM and the TGI is greater than 25000 nM.

For the molecule `C[C@@H]1C[C@@H]([C@H](O)CC2CC(=O)NC(=O)C2)C(=O)[C@@H](C)C1`, the GI50 is 250 nM and the TGI is 4050 nM.

With `C[C@@]1(F)[C@H](O)[C@@H](CO)O[C@H]1n1ccc(=O)[nH]c1=O`, the GI50 was greater than 100000 nM and the total growth inhibition concentration (TGI) is greater than 100000 nM.

As to `C/C(=C(/c1ccc(O)cc1)c1ccc(OCCN(C)C)cc1)c1ccc(Cl)cc1`, the GI50 is 13400 nM and the TGI was found to be 31900 nM.

On to `O=c1[nH]c(C2CCCN2)nc2c1oc1ccc(Cl)cc12` (configuration not stated), for which the GI50 was greater than 67400 nM and the TGI was greater than 100000 nM.

For `CCN(CC)C(=S)SSC(C)C`, the GI50 is 17300 nM and the TGI is 45800 nM.

`CC(C)(C)C[C@H]1N[C@@H](C(=O)NC2CCC(O)CC2)[C@H](c2cccc(Cl)c2F)[C@@]12C(=O)Nc1cc(Cl)ccc12` (some centres not stated): the GI50 is 3540 nM and the TGI was 18500 nM.

Take `C#C[C@]1(O)CC[C@H]2[C@@H]3CC=C4c5sc(Nc6ccc(Cl)cn6)nc5CC[C@]4(C)[C@H]3CC[C@@]21C`: the GI50 was 7650 nM and the TGI is greater than 100000 nM.

Turning to `NC(N)=N/N=C\c1ccc(OCc2ccccc2)cc1`, the GI50 was 1230 nM and the TGI came to 2640 nM.

With `Cc1cccc(N2C(=O)/C(=C/C(Cl)=C/c3ccc([N+](=O)[O-])cc3)SC2=S)c1C`, the GI50 was 1690 nM and the TGI was 4250 nM.

As to `OCc1ccc(N(Cc2ccc(F)cc2)Cc2ccc(F)cc2)cc1Cl`, the GI50 is 341 nM and the TGI was 1700 nM.

`COc1cc(/C=N/NC(=O)c2cnn3c2NC(c2ccccc2)C3)ccc1OC1CCCC1` (configuration not stated): the GI50 is 524 nM and the TGI was found to be 5710 nM.

Take `CCCCNC(c1ccc(Cl)cc1)C(O)c1ccc(Cl)cc1` (configuration not stated): the GI50 is 1690 nM and the TGI came to 3300 nM.

Turning to `Cn1c(COC(=O)NCCn2ccnc2)nc2c(N3CCOCC3)nc(-c3ccccc3)nc21`, the GI50 was 360 nM and the TGI came to 1460 nM.

Regarding `CN(C)CCC(=O)Nc1ccc(-n2cc(-c3cccc(NC(=S)Nc4cccc(-c5cn(-c6ccc(NC(=O)CCN(C)C)cc6)nn5)c4)c3)nn2)cc1`, the GI50 is 4740 nM and the TGI is 22700 nM.

In the case of `COc1ccc2c(c1)C(=O)c1c-2c(OCCCN(C)C)nc2cc(Br)ccc12`, the GI50 is 4680 nM and the TGI is 18000 nM.

Regarding `O=C1C(=O)c2c(nc3ccc(C(F)(F)F)cn23)-c2ccccc21`, the GI50 was 234 nM and the TGI was found to be 560 nM.

With `COc1ccc(-n2c(=S)sc3c(Cl)nc(C)nc32)c(OC)c1`, the GI50 was 1980 nM and the TGI came out at 6570 nM.

Turning to `COc1ccc(-c2ccc(OC)c(OC)c2OC)cc1`, the GI50 is 377 nM and the TGI came out at 4370 nM.

With `Nc1cc2c3c(cccc3c1)C(=O)N(CCN1CCCC1)C2=O`, the GI50 was 4480 nM and the TGI is 21100 nM.

On to `O=C(NCc1ncc[nH]1)c1ccc(-c2nc3ccc4[nH]ncc4c3c3c2CCCC3)cc1`, for which the GI50 was 640 nM and the TGI turned out to be 1850 nM.

With `C/C(=N/NC(=S)Nc1ccccc1)c1nc2ccc(Cl)cc2[nH]1`, the GI50 is 181 nM and the TGI came out at 776 nM.
